According to publication PMC4104029, “Mechanism of Action of Compound-13: An α1-Selective Small Molecule Activator of AMPK” (Chemistry & Biology, 2014):

Assays:
[1] = target: AMPKα2β1γ1 Thr172 dephosphorylation by PP2Cα (Homo sapiens, UniProt P54619+P54646); test: Phosphatase protection assay (PP2Cα); format: biochemical; details: incubation with PP2Cα; 1–10 μM
Procedure: Figure 2 C2 Is a Partial Agonist of α2 Complexes and Selectively Protects α1 Complexes against Dephosphorylation by PP2C (A and B) Recombinant AMPKα1β1γ1 (A) or AMPKα2β1γ1 (B) was assayed in the presence of AMP (30 μM) and increasing concentrations of C2 (0–20 μM). Results are expressed as fold increase in activity relative to controls without ligand and represent the mean ± SD for three independent experiments. (C and D) The effects of C2 and AMP on dephosphorylation and inactivation of AMPKα1β1γ1 (C) and α2β1γ1 (D) by PP2Cα (present in all assay conditions). Results are expressed as a percentage of control reactions performed in the absence of Mg^2+ and represent the mean ± SD of three independent experiments. Representative blots of pT172 and total AMPKα are shown below the bar charts. (E) AMPKα1β1γ2 WT (open bars) and mutant complexes (β1 ΔCBD [β1 Δ1–185], gray bars, and γ2 R531G, black bars) were purified from COS1 cells by transient overexpression of the indicated constructs, as described in Methods, and assayed in the presence of the indicated compounds under standard conditions. Results are expressed as the fold increase in activity relative to controls in the absence of compound and represent the mean ± SD for three independent experiments.
AMPKα1β1γ1 or α2β1γ1 was dephosphorylated in vitro with PP2Cα in 50 mM HEPES pH 7.4, 10 mM MgCl2, 0.1 mM EGTA, 0.03% BRIJ-35, 1 mM DTT, and the indicated compounds for 15 min at 30°C. Mg^2+ was omitted from the negative control. Reactions were terminated by 20-fold dilution and storage on ice. AMPK activity was assayed under standard conditions in the presence of saturating AMP (200 μM). The results are expressed as percentage activity of the negative control. In control experiments, PP2Cα activity was determined in reactions containing 50 mM TES pH 7.4, 0.1 mM EGTA, 25 mM MgCl2, 0.01% BRIJ-35, 0.02% (v/v) 2-mercaptoethanol, and 100 μM EFLR(pT)SCGS (168–176 AMPKα2). Liberated phosphate was determined using malachite green ([Baykov et al., 1988]).

[2] = target: T1, WT FLAG-α2, β1, and γ1 in COS1 cells (Homo sapiens, UniProt P54619+P54646); test: Kinase activity in anti-FLAG immunoprecipitates from treated COS1 cells; format: cell-based; details: up to 100 μM, 1 h
T1 construct: expressed in transfected cells; host or cells: COS-1 cells
Source text: (Needleman and Wunsch, 1970) and edited using ESPript (Gouet, et al., 2003). Secondary structure was derived from PDBID 2Y94. The phosphotransferase domain is shaded green (T-loop phosphorylation site is indicated with a star), the autoinhibitory domain in blue and the C-terminal domain in yellow. Regulatory elements in the α-linker are also indicated: α-hook in pink and α-RIMs in orange. Black lines indicate the position of the epitopes recognised by α-subunit specific antibodies used in this study. (B) COS-1 cells were seeded into 6-well plates and transiently transfected with pCMV-AMPKβ1, pCMV-AMPKγ1 and either pCMV-FLAG-AMPKα2 WT or pCMV-FLAG-AMPKα2/α1 LOOP chimera using FuGENE HD.
After 24 h cells were treated with the indicated compounds for 1 h and kinase activity determined in anti-FLAG immunoprecipitates under standard conditions. […]
Mouse hepatocytes were incubated with the indicated compounds in the absence (Resting) or presence of 10 mU/ml insulin for 60 min. Lysates were analysed by Western blotting using the indicated antibodies. […]
Yeast acetate CoA ligase (Sigma) was assayed in reactions containing 50 mM TES pH 7.4, 0.1 mM EDTA, 5 mM MgCl2, 4 mM ATP, 0.2 mM coenzyme A, 5 mM DTT and increasing concentrations of C2 and C13 (0 – 100 μM). The formation of pyrophosphate (PPi) was monitored by reduction of PPi-molybdate complexes as described in Methods. […]

T1 sequence (P54646 whole entry): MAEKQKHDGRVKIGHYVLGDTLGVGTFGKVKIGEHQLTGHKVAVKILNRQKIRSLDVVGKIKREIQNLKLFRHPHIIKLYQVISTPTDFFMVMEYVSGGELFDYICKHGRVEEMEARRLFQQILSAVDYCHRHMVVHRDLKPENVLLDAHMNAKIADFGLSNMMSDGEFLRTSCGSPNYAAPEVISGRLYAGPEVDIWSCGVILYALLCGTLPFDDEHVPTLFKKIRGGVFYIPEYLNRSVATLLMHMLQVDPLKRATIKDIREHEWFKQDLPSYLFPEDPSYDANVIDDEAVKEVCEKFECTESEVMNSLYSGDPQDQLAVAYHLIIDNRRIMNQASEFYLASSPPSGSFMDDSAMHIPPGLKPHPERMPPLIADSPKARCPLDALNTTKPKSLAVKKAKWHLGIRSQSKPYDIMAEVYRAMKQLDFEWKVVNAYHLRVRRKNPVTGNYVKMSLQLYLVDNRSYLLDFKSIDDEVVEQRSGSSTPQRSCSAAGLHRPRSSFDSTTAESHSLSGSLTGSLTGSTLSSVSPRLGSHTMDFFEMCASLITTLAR
T1 sequence (Q9Y478 whole entry partner): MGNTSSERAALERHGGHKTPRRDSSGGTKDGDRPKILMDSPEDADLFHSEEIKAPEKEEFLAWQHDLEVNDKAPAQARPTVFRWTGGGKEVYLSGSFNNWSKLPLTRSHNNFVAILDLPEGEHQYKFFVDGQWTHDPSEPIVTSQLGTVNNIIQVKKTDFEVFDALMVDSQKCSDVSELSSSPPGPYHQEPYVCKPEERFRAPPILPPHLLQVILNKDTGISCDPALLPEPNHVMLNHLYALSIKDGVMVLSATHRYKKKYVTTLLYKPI
T1 sequence (P54619 whole entry): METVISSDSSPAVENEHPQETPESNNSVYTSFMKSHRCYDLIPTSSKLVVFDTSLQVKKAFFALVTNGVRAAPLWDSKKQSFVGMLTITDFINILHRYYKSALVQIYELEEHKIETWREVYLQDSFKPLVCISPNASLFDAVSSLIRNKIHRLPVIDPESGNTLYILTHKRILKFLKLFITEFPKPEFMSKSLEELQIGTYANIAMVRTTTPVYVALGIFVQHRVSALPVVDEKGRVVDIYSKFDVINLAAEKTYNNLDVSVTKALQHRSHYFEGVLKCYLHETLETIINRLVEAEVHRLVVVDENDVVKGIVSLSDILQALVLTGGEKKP
AMPKα2β1γ1 Thr172 dephosphorylation by PP2Cα, sequence (P54646 whole entry): as the sequence (P54646 whole entry) above
AMPKα2β1γ1 Thr172 dephosphorylation by PP2Cα, sequence (Q9Y478 whole entry partner): as the sequence (Q9Y478 whole entry partner) above
AMPKα2β1γ1 Thr172 dephosphorylation by PP2Cα, sequence (P54619 whole entry): as the sequence (P54619 whole entry) above

Structure (SMILES): O=P(O)(O)c1ccc(-c2cc(O)on2)o1 [Compound C2, 5-(5-hydroxyl-isoxazol-3-yl)-furan-2-phosphonic acid]
- effect on dephosphorylation [1]: essentially no effect

Structure (SMILES): CC(C)C(=O)OCOP(=O)(OCOC(=O)C(C)C)c1ccc(C2=NOC(=O)C2)o1 [Compound C13]
- kinase activation in cells [2]: unresponsive
